For CC[C@H](C)[C@H](NC(=O)[C@H](CC(C)C)NC(=O)[C@H](CO)NC(=O)[C@H](Cc1c[nH]cn1)NC(=O)[C@@H](NC(=O)[C@H](CC(C)C)NC(=O)[C@H](CO)NC(=O)[C@@H](NC(=O)[C@H](Cc1ccc(O)cc1)NC(=O)[C@H](CC(N)=O)NC(=O)[C@H](CC(N)=O)NC(=O)[C@@H](NC(=O)[C@H](CCC(=O)O)NC(=O)[C@H](CCCNC(=N)N)NC(=O)[C@H](CC(=O)O)NC(=O)[C@H](Cc1c[nH]c2ccccc12)NC(=O)[C@H](CCC(=O)O)NC(=O)[C@H](CCSC)NC(=O)[C@H](Cc1c[nH]c2ccccc12)NC(=O)[C@@H]1CSC(C(=O)N[C@@H](CCCCNC(=O)CCCCCNC(=O)CCCCCNC(=O)[C@H](CCCCNC(=O)CCCCCNC(=O)CCCCCNC(=O)CCCCCNC(=O)[C@H](CCCCN)NC(=O)C2N[C@H](C(=O)N[C@@H](Cc3c[nH]c4ccccc34)C(=O)N[C@@H](CCSC)C(=O)N[C@@H](CCC(=O)O)C(=O)N[C@@H](Cc3c[nH]c4ccccc34)C(=O)N[C@@H](CC(=O)O)C(=O)N[C@@H](CCCNC(=N)N)C(=O)N[C@@H](CCC(=O)O)C(=O)N[C@H](C(=O)N[C@@H](CC(N)=O)C(=O)N[C@@H](CC(N)=O)C(=O)N[C@@H](Cc3ccc(O)cc3)C(=O)N[C@H](C(=O)N[C@@H](CO)C(=O)N[C@@H](CC(C)C)C(=O)N[C@H](C(=O)N[C@@H](Cc3c[nH]cn3)C(=O)N[C@@H](CO)C(=O)N[C@@H](CC(C)C)C(=O)N[C@H](C(=O)N[C@@H](CCC(=O)O)C(=O)N[C@@H](CCC(=O)O)C(=O)N[C@@H](CO)C(=O)N[C@@H](CCC(N)=O)C(=O)N[C@@H](CC(N)=O)C(=O)N[C@@H](CCC(N)=O)C(=O)N[C@@H](CCC(N)=O)C(=O)N[C@@H](CCC(=O)O)C(=O)N[C@@H](CCCCN)C(=O)N[C@@H](CC(N)=O)C(=O)N[C@@H](CCC(=O)O)C(=O)N[C@@H](CCC(N)=O)C(=O)N[C@@H](CCC(=O)O)C(=O)N[C@@H](CC(C)C)C(=O)N[C@@H](CC(C)C)C(=O)O)[C@@H](C)CC)[C@@H](C)CC)[C@@H](C)O)[C@@H](C)CC)CS2)NC(=O)C2N[C@H](C(=O)N[C@@H](Cc3c[nH]c4ccccc34)C(=O)N[C@@H](CCSC)C(=O)N[C@@H](CCC(=O)O)C(=O)N[C@@H](Cc3c[nH]c4ccccc34)C(=O)N[C@@H](CC(=O)O)C(=O)N[C@@H](CCCNC(=N)N)C(=O)N[C@@H](CCC(=O)O)C(=O)N[C@H](C(=O)N[C@@H](CC(N)=O)C(=O)N[C@@H](CC(N)=O)C(=O)N[C@@H](Cc3ccc(O)cc3)C(=O)N[C@H](C(=O)N[C@@H](CO)C(=O)N[C@@H](CC(C)C)C(=O)N[C@H](C(=O)N[C@@H](Cc3c[nH]cn3)C(=O)N[C@@H](CO)C(=O)N[C@@H](CC(C)C)C(=O)N[C@H](C(=O)N[C@@H](CCC(=O)O)C(=O)N[C@@H](CCC(=O)O)C(=O)N[C@@H](CO)C(=O)N[C@@H](CCC(N)=O)C(=O)N[C@@H](CC(N)=O)C(=O)N[C@@H](CCC(N)=O)C(=O)N[C@@H](CCC(N)=O)C(=O)N[C@@H](CCC(=O)O)C(=O)N[C@@H](CCCCN)C(=O)N[C@@H](CC(N)=O)C(=O)N[C@@H](CCC(=O)O)C(=O)N[C@@H](CCC(N)=O)C(=O)N[C@@H](CCC(=O)O)C(=O)N[C@@H](CC(C)C)C(=O)N[C@@H](CC(C)C)C(=O)O)[C@@H](C)CC)[C@@H](C)CC)[C@@H](C)O)[C@@H](C)CC)CS2)C(N)=O)N1)[C@@H](C)CC)[C@@H](C)O)[C@@H](C)CC)C(=O)N[C@@H](CCC(=O)O)C(=O)N[C@@H](CCC(=O)O)C(=O)N[C@@H](CO)C(=O)N[C@@H](CCC(N)=O)C(=O)N[C@@H](CC(N)=O)C(=O)N[C@@H](CCC(N)=O)C(=O)N[C@@H](CCC(N)=O)C(=O)N[C@@H](CCC(=O)O)C(=O)N[C@@H](CCCCN)C(=O)N[C@@H](CC(N)=O)C(=O)N[C@@H](CCC(=O)O)C(=O)N[C@@H](CCC(N)=O)C(=O)N[C@@H](CCC(=O)O)C(=O)N[C@@H](CC(C)C)C(=O)N[C@@H](CC(C)C)C(=O)O (stereo partly drawn) [Compound 3α3-C34], the IC50 (NL4-3 (MT-4)) was 1590 pM, the IC50 (T20-resistant virus) was 470 pM and the IC50 (HIV-1 NL4-3) was 730 pM. It also gave an IC50 (HIV-1 92HT599.24) of 250 pM, an IC50 (T-20 Resistant Virus) of 340 pM and a Ratio (T-20 Resistant Virus) of 0.21. It also gave an IC50 (HIV-1 92UG024.2) of 600 pM, an IC50 (HIV-1 92MW965.26) of 160 pM and an IC50 (HIV-1 pNLHxB) of 760 pM. It also gave an IC50 (HIV-1 89.6) of 10200 pM.
